# Where a name gives a salt, the structure may show the parent alone. Read-outs that look alike come from different tables or passages of the source.
# Experiments:
# [1] = LD50 mouse, os; settings: in vivo, po
# [2] = tested on: passive cutaneous anaphylaxis; assay: Inhibition of passive cutaneous anaphylaxis in rats (oral), % versus controls; format: in vivo; settings: rat, os
# Procedure: The 5-(2-hydroxy-3-thiopropoxy)chromone-2-carboxylic acids, their salts and their esters have been tested in rats by oral route to evaluate their ability to inhibit passive cutaneous anaphylaxis in animals sensitized to egg albumin and Bordetella pertussis.
# The percentages of inhibition, in comparison with the controls, of the allergic reaction induced by passive cutaneous anaphylaxis in rats treated with 0.1 ml of an homologous antiserum diluted 1/10 and injected by intradermal route, are summarized in table I.
# [3] = tested on: passive cutaneous anaphylaxis; assay: ED50 for inhibition of passive cutaneous anaphylaxis in rats sensitized to egg albumin and Bordetella pertussis, oral and intravenous; format: in vivo; settings: Table IV, rat
# From the text: The ability of the 5-(2-hydroxy-3-thiopropoxy) chromone-2-carboxylic acids of the present invention and of the salts and esters thereof of inhibiting--by oral as well as by intravenous route--the passive cutaneous anaphylaxis in rats sensitized to egg albumin and Bordetella pertussis has been compared to that of two reference compounds: […]
# [4] = po, Table I, °° significant P ≤ 0.01, read-out: Δ % in comparison with controls (inhibition of passive cutaneous anaphylaxis)
# [5] = po, Table I, °° P ≤ 0.01, ° P ≤ 0.05 (product B), read-out: Δ % in comparison with controls (inhibition of passive cutaneous anaphylaxis)
# [6] = po, Table III, 10 mg/kg, °° P ≤ 0.01, * non significant (product D), read-out: Δ % in comparison with controls (inhibition of passive cutaneous anaphylaxis)
# [7] = po, Table III, °° P ≤ 0.01, * non significant (product D), read-out: Δ % in comparison with controls (inhibition of passive cutaneous anaphylaxis)
SMILES,LD50 [1] [mg/kg],"change in vivo at 100 mg/kg [2, 5] [%]","ED50 ([3]; i.v., read-out: ED50) [mg/kg]",further results
"CCCCSCC(O)COc1cccc2oc(C(=O)OCC)cc(=O)c12 (stereo not shown) [CM 57193, Ethyl 5-(2-hydroxy-3-butylthiopropoxy)chromone-2-carboxylate]",> 1000,-70.8,,"change in vivo at 50 mg/kg [2, 4]: -47.6%"
"CCCCSCC(O)COc1cccc2oc(C(=O)O)cc(=O)c12.O (stereo not shown) [CM 57194, 5-(2-hydroxy-3-butylthiopropoxy)chromone-2-carboxylic acid monohydrate]",> 1000,-55.4,,
"CCOC(=O)c1cc(=O)c2c(OCC(O)CSC)cccc2o1 (stereo not shown) [CM 57201, ethyl 5-(2-hydroxy-3-methylthiopropoxy)chromone-2-carboxylate]",> 1000,-75.1,0.11,"ED50 ([3]; po, os, read-out: ED50): 5.39 mg/kg; Δ % in comparison with controls (inhibition of passive cutaneous anaphylaxis) ([2]; Table II, 10 mg/kg, °° P ≤ 0.01, * non significant (product C)): -65.55%; change in vivo at 10 mg/kg ([2]; po, Table I, 10 mg/kg, °° significant P ≤ 0.01, read-out: Δ % in comparison with controls (inhibition of passive cutaneous anaphylaxis)): -65.5%"
"CSCC(O)COc1cccc2oc(C(=O)O)cc(=O)c12 (stereo not shown) [CM 57202, 5-(2-hydroxy-3-methylthiopropoxy)chromone-2-carboxylic acid]",,,0.13,"ED50 ([3]; po, os, read-out: ED50): 38.1 mg/kg; change in vivo at 10 mg/kg [2, 6]: -53%; change in vivo at 100 mg/kg [2, 7]: -70.4%"
"CCOC(=O)c1cc(=O)c2c(OCC(O)CSC(C)C)cccc2o1 (stereo not shown) [CM 57215, Ethyl 5-(2-hydroxy-3-isopropylthiopropoxy)chromone-2-carboxylate]",> 1000,-75,,
"CCOC(=O)c1cc(=O)c2c(OCC(O)CSCC)cccc2o1 (stereo not shown) [CM 57249, Ethyl 5-(2-hydroxy-3-ethylthiopropoxy)chromone-2-carboxylate]",> 1000,-75.8,,"change in vivo at 50 mg/kg [2, 4]: -73%"
"CCCSCC(O)COc1cccc2oc(C(=O)OCC)cc(=O)c12 (stereo not shown) [CM 57251, Ethyl 5-(2-hydroxy-3-propylthiopropoxy)chromone-2-carboxylate]",> 1000,-69.1,,
"O=C(O)c1cc(=O)c2c(OCC(O)COc3cccc4oc(C(=O)O)cc(=O)c34)cccc2o1 [Product E, 1,3-bis-(2-carboxy-5-chromonyloxy)propane-2-ol sodium salt, reference compound]",,,1.15,ED50 ([3]; os): inactive
"N#Cc1ccc(OCC(O)COc2cccc3oc(C(=O)O)cc(=O)c23)cc1 (stereo not shown) [Product F, 5-(2-hydroxy-3-p-cyanophenoxypropoxy)chromone-2-carboxylic acid, reference compound]",,,0.29,ED50 ([3]; os): inactive
"O=C(O)c1ccc2oc3ccc(OCCO)cc3c(=O)c2c1 [product A, 7-(2-hydroxyethoxy)-9-oxoxanthene-2-carboxylic acid, reference compound]",~1000,-66.2,,
"CC(=O)c1ccc(O)c(C(=O)O)c1 [product B, 5-acetylsalicylic acid, reference compound]",~1000,-29.2,,
"CCOC(=O)c1cc(=O)c2c(OCC(O)COC)cccc2o1 (stereo not shown) [product C, ethyl 5-(2-hydroxy-3-methoxypropoxy)chromone-2-carboxylate, reference compound]",,,,"change in vivo at 10 mg/kg ([2]; po, Table II, 10 mg/kg, °° P ≤ 0.01, * non significant (product C), read-out: Δ % in comparison with controls (inhibition of passive cutaneous anaphylaxis)): 8.71%"
"CSCC(O)COc1ccc2c(=O)cc(C(=O)O)oc2c1 (stereo not shown) [product D, 7-(2-hydroxy-3-methylthiopropoxy)chromone-2-carboxylic acid, reference compound]",,,,"change in vivo at 10 mg/kg [2, 6]: 17.8%; change in vivo at 100 mg/kg [2, 7]: -16.2%; change in vivo at 200 mg/kg ([2]; po, Table III, 200 mg/kg, ° significant P ≤ 0.05, read-out: Δ % in comparison with controls (inhibition of passive cutaneous anaphylaxis)): -30.1%"

# Reference: patent US4282247A, “5-(2-Hydroxy-3-thiopropoxy) chromone-2-carboxylic acids chemical process and pharmaceutical compositions” (CM Industries, priority 1979, dated 1981)
